Experimental data from US20230391868A1, “COMPOSITIONS FOR AND METHODS OF TREATING CANCER” (The George Washington University, priority 2022, published 2023).

Key:
[1] = tested on: mouse SIRPα promoter; assay: SIRPα-luc reporter luciferase assay in A31A7 macrophages; type: cell-based; conditions: 10 μM of NextA; untreated transfected cells 32.2-fold (FIG. 2B)
Protocol: The mouse CD47 or SIRPα promoters were cloned into a promoterless pGL4.20[luc2/puro] vector using Genentech's cloning services (San Francisco, CA, USA). Vectors were transfected into SM1 and B16 melanoma cells using Lipofectamine 3000 (L3000008, ThermoFisher) and transfected cells were selected using puromycin. A31A7 macrophages were transiently transfected using jetOPTIMUS DNA transfection reagent (Polyplus, NY, USA). Luminescence was measured using the Luciferase Assay System (E4550, Promega) in a SpectraMax i3× Multi-Mode Microplate Reader (Molecular Devices).
To investigate whether HDAC6 controlled SIRPα expression at the transcriptional level, the mouse SIRPα promoter was cloned into a promoterless pGL4.20 [luc2/puro] vector to create a SIRPα-Luc reporter plasmid. e Nex, A31A7 macrophages were transiently transfected in the absence or presence of 10 μM of NextA and luminescence was evaluated. A31A7 cells were successfully transfected with the SIRPα-luciferase reporter vector as evidenced by a 32.2-fold increase in relative luminescence units (RLU) compared to untransfected cells (FIG. 2B).

[2] = tested on: SM1 melanoma tumors; assay: Immunophenotyping of SM1 tumors by flow cytometry; type: in vivo, mouse
Protocol: Flow Cytometry: Immunophenotyping of tumors by flow cytometry was performed following the protocol previously described (Knox T, et al. (2019) Sci. Rep. 9:6136; Banik D, et al. (2020) Cancer Res. 80:3649-3662). When control tumors reached the endpoint (2000 mm^3), mice were euthanized following the IACUC protocol at The George Washington University, and tumors were processed into a single-cell suspension for analysis by flow cytometry with tumor digestion buffer containing collagenases I and IV, hyaluronidase V, and DNAse I. Dead cells were discriminated using LIVE/DEAD™ Fixable Aqua Dead Cell Stain Kit (ThermoFisher Scientific, L34965). The antibodies used to stain cell surface markers were all purchased from BioLegend (San Diego, CA) unless otherwise mentioned. Myeloid cell surface markers include: APC/Fire 750 anti-mouse CD45.2 (clone 104), Brilliant Violet 421 anti-mouse/human CD11b (clone M1/70), Brilliant Violet 605 anti-mouse Ly-6G/Ly-6C (Gr-1) (clone RB6-8C5), Brilliant Violet 785 anti-mouse F4/80 (clone BM8), APC anti-mouse CD80 (clone 16-10A1), PerCP/Cyanine5.5 anti-mouse H-2Kd (clone SF1-1.1), PE/Cy7 anti-mouse CD206 (MMR) (clone C068C2), PE anti-mouse CD163 (clone 5B11), and Alexa Fluor 700 anti-mouse CD3 (clone 17A2). T cell surface markers are as follows: Brilliant Violet 785 anti-mouse CD45.2 (clone 104), PerCP/Cy5.5 anti-mouse CD3 (clone 17A2), APC/Fire 750 anti-mouse CD8a (clone 53-6.7), Brilliant Violet 650 anti-mouse CD4 (clone GK1.5), Brilliant Violet 605 anti-mouse CD44 (clone IM7), PE anti-mouse CD62L (clone MEL-14), and Pacific Blue anti-mouse CD25 (clone PC61). NK cell surface markers are as follows: Brilliant Violet 785 anti-mouse CD45.2 (clone 104), PerCP/Cy5.5 anti-mouse CD3 (clone 17A2), PE/Cy7 anti-mouse CD49b (pan-NK cells) (clone DX5), Brilliant Violet 421 anti-mouse CD16/32 (clone 93), Alexa Fluor 700 anti-mouse CD8a (clone 53-6.7), and PE anti-mouse 4-1BB (clone 17B5). Multicolor flow data was acquired using a BD FACS Celesta Cell Analyzer, and data analysis was performed with FlowJo software version 10.3. The gating strategies for each immune cell panel can be found in FIG. 11A-FIG. 11C.
To evaluate the effects of the single arms and combination therapy, the tumors were harvested at the experimental endpoint and immunophenotyping was performed by flow cytometry. Overall, the combination of NextA and anti-CD47 had immunomodulatory effects and enhanced immune cell infiltration in the TME. […] The different macrophage populations in the tumors were evaluated (FIG. 6B).

## CCCCN(Cc1ccc(C(=O)NO)cc1)C(=O)Nc1ccccc1 [NextA, Nexturastat A]
[1]
  increase in relative luminescence units (RLU) compared to untransfected cells: 7.7 fold
[2]; SM1 tumors
  M1/M2 ratio: increased
[2]; SM1 tumors (FIG. 6B)
  M1-like macrophages (CD80+, H2Kd+, F4/80+): significantly increased
  M2-like macrophages (CD206+, CD163+, F4/80+): significantly decreased
[2]; SM1 tumors (FIG. 6C)
  CD3 T cell infiltration: increased
[2]; SM1 tumors (FIG. 6J)
  total NKT, CD8+ NKT, and CD137+ CD8+ NKT cells in the TME: significantly increased
